Experimental data from US20020137929A1, “1 - (3-heterocyclylphenyl) isothiourea, -isourea, -guanidine and -amidine herbicidal agents” (Intellectual Property Department, BASF Aktiengesellschaft, priority 1998, published 2002).

Legend:
[1] = system: ORYSAT (Rice, Tebonnet); assay: Preemergence herbicidal evaluation; type: in vivo, Oryza sativa, (L.) Tebonnet; conditions: rated 4-5 weeks after treatment, rating scale 0-9
In short: (§1)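 Each species is sown separately in potting soil over roughly an inch of soil before any emergence. The soil surface then receives an aqueous acetone spray delivering about 0.0156 to 0.500 kg/ha of compound. After four to five weeks, injury is scored from 0 to 9 relative to a control.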

[2] = system: SETVI (Foxtail, Green); assay: Preemergence herbicidal evaluation; type: in vivo, Setaria viridis; conditions: rated 4-5 weeks after treatment, rating scale 0-9
In short: as §1

[3] = system: CYPIR (Rice Flatsedge); assay: Preemergence weed control under flooded paddy conditions; type: in vivo, Cyperus iria; conditions: rated 3-4 weeks after treatment
In short: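 First, seeds or propagules go into the top 0.5 cm of silt loam; next, water is held 1.5 to 3 cm over the soil; then compound (50/50 acetone/water) is pipetted into it at about 0.0313 to 0.500 kg/ha; finally plants are rated visually 0-9 after three to four weeks.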

[4] = system: ECHCG (Barnyardgrass); assay: Postemergence herbicidal evaluation; type: in vivo, Echinochloa crus-galli; conditions: postemergence
In short: (§2)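 Compound is applied as a foliar spray to seedlings about two weeks old, formulated in equal parts acetone and water with 0.5% TWEEN 20 and delivered at 40 psi to give about 0.0156–0.500 kg per hectare. Injury is rated visually 0–9 after four to five weeks.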

[5] = system: GALAP (Galium); assay: Preemergence herbicidal evaluation; type: in vivo, Galium aparine; conditions: rated 4-5 weeks after treatment, rating scale 0-9
In short: as §1

[6] = system: MOOVA (Monochoria); assay: Preemergence weed control under flooded paddy conditions; type: in vivo, Monochoria vaginalis; conditions: rated 3-4 weeks after treatment
In short: (§3)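 Herbicidal effect is scored visually on a 0-9 scale against an untreated control, three to four weeks after compounds are pipetted into the flood water (1.5 to 3 cm deep) over seeds planted in silt loam at 0.5 cm depth. Rates: about 0.0313 to 0.500 kg/ha.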

[7] = system: TRZAWR (Wheat, Winter, cv Riband); assay: Preemergence herbicidal evaluation; type: in vivo, Triticum aestivum; conditions: rated 4-5 weeks after treatment, rating scale 0-9
In short: as §1

[8] = system: CHEAL (Lambsquarters, Common); assay: Postemergence herbicidal evaluation; type: in vivo, Chenopodium album; conditions: postemergence
In short: as §2

[9] = system: ZEAMX (Corn, Field); assay: Preemergence herbicidal evaluation; type: in vivo, Zea mays; conditions: rated 4-5 weeks after treatment, rating scale 0-9
In short: as §1

[10] = system: GLXMAW (Soybean, Williams); assay: Preemergence herbicidal evaluation; type: in vivo, Glycine max, (L.) Merr. cv Williams; conditions: rated 4-5 weeks after treatment, rating scale 0-9
In short: as §1

[11] = system: CASOB (Sicklepod); assay: Postemergence herbicidal evaluation; type: in vivo, Cassia obtusifolia; conditions: postemergence
In short: as §2

[12] = system: SAGPY (Arrowhead (Pygmaea)); assay: Preemergence weed control under flooded paddy conditions; type: in vivo, Sagittaria pygmaea; conditions: rated 3-4 weeks after treatment
In short: as §3

[13] = system: ORYSAT (Rice, Tebonnet); assay: Postemergence herbicidal evaluation; type: in vivo, Oryza sativa, (L.) Tebonnet; conditions: postemergence
In short: as §2

COCCN1C(=O)CSC1=Nc1cc(-n2c(=O)cc(C(F)(F)F)n(C)c2=O)c(F)cc1Cl [Compound 155, 3-{4-Chloro-2-fluoro-5-{[3-(2-methoxyethyl)-4-oxo-2-thiazolidinylidene]amino}phenyl}-1-methyl-6-(trifluoromethyl)-2,4(1H,3H)-pyrimidinedione]
Preemergence herbicidal rating ORYSAT ([1]; rate 0.0625 kg/ha): 0.0 | Preemergence herbicidal rating ORYSAT ([1]; rate 0.1250 kg/ha): 0.0 | Preemergence herbicidal rating ORYSAT ([1]; rate 0.2500 kg/ha): 2.0 | Preemergence herbicidal rating SETVI ([2]; rate 0.0625 kg/ha): 0.0 | Preemergence herbicidal rating SETVI ([2]; rate 0.1250 kg/ha): 0.0 | Preemergence herbicidal rating SETVI ([2]; rate 0.2500 kg/ha): 0.0 | herbicidal effect rating, CYPIR ([3]; 0.0313 kg/ha): 0.0 | herbicidal effect rating, CYPIR ([3]; 0.0625 kg/ha): 0.0 | herbicidal effect rating, CYPIR ([3]; 0.1250 kg/ha): 0.0 | herbicidal effect rating, CYPIR ([3]; 0.2500 kg/ha): 0.0 | herbicidal rating ECHCG ([4]; rate 0.0156 kg/ha): 0.0 | herbicidal rating ECHCG ([4]; rate 0.0313 kg/ha): 0.0 | herbicidal rating ECHCG ([4]; rate 0.0625 kg/ha): 0.0 | Preemergence herbicidal rating GALAP ([5]; rate 0.0625 kg/ha): 4.0 | Preemergence herbicidal rating GALAP ([5]; rate 0.1250 kg/ha): 4.0 | Preemergence herbicidal rating GALAP ([5]; rate 0.2500 kg/ha): 4.0 | herbicidal effect rating, MOOVA ([6]; 0.0313 kg/ha): 0.0 | herbicidal effect rating, MOOVA ([6]; 0.0625 kg/ha): 0.0 | herbicidal effect rating, MOOVA ([6]; 0.1250 kg/ha): 0.0 | herbicidal effect rating, MOOVA ([6]; 0.2500 kg/ha): 0.0 | Preemergence herbicidal rating TRZAWR ([7]; rate 0.0625 kg/ha): 0.0 | Preemergence herbicidal rating TRZAWR ([7]; rate 0.1250 kg/ha): 0.0 | Preemergence herbicidal rating TRZAWR ([7]; rate 0.2500 kg/ha): 0.0 | herbicidal rating CHEAL ([8]; rate 0.0156 kg/ha): 0.0 | herbicidal rating CHEAL ([8]; rate 0.0313 kg/ha): 0.0 | herbicidal rating CHEAL ([8]; rate 0.0625 kg/ha): 0.0 | Preemergence herbicidal rating ZEAMX ([9]; rate 0.0625 kg/ha): 0.0 | Preemergence herbicidal rating ZEAMX ([9]; rate 0.1250 kg/ha): 0.0 | Preemergence herbicidal rating ZEAMX ([9]; rate 0.2500 kg/ha): 2.0 | Preemergence herbicidal rating GLXMAW ([10]; rate 0.0625 kg/ha): 0.0 | Preemergence herbicidal rating GLXMAW ([10]; rate 0.1250 kg/ha): 0.0 | Preemergence herbicidal rating GLXMAW ([10]; rate 0.2500 kg/ha): 4.0 | herbicidal rating CASOB ([11]; rate 0.0156 kg/ha): 0.0 | herbicidal rating CASOB ([11]; rate 0.0313 kg/ha): 0.0 | herbicidal rating CASOB ([11]; rate 0.0625 kg/ha): 0.0 | herbicidal effect rating, SAGPY ([12]; 0.0313 kg/ha): 0.0 | herbicidal effect rating, SAGPY ([12]; 0.0625 kg/ha): 0.0 | herbicidal effect rating, SAGPY ([12]; 0.1250 kg/ha): 0.0 | herbicidal effect rating, SAGPY ([12]; 0.2500 kg/ha): 0.0 | herbicidal rating ORYSAT ([13]; rate 0.0156 kg/ha): 0.0 | herbicidal rating ORYSAT ([13]; rate 0.0313 kg/ha): 0.0 | herbicidal rating ORYSAT ([13]; rate 0.0625 kg/ha): 0.0
